Where “and” joins values, the source holds several entries; their conditions need not be identical. Identical values can stand only once. Inconclusive results and toxic doses are left out. Rule for the calls: active = survival T/C of 150% or more; inactive = T/C below 125% in these data.
Test system: P388 leukemia ip, CD2F1 mice, survival T/C
Assay: NCI In Vivo Anticancer Drug Screen. Data for tumor model P388 Leukemia (intraperitoneal) in CD2F1 (CDF1) mice
Conditions: endpoint: median survival time, higher = longer survival
Procedure, shortened: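 Mice carrying the transplanted tumor received test compound or vehicle. Survival was recorded in each group, and the value is the treated-group measurement divided by that of the vehicle-treated control group.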

[1] = dose: 50.0 mg/kg/injection, schedule: Q01DX005 (ip), vehicle: saline with Tween-80
[2] = dose: 100.0 mg/kg/injection, schedule: Q01DX005 (ip), vehicle: saline with Tween-80
[3] = dose: 200.0 mg/kg/injection, schedule: Q01DX005 (ip), vehicle: saline with Tween-80
[4] = dose: 50.0 mg/kg/injection, schedule: Q01DX009 (ip), vehicle: saline
[5] = dose: 100.0 mg/kg/injection, schedule: Q01DX009 (ip), vehicle: saline
[6] = dose: 200.0 mg/kg/injection, schedule: Q01DX009 (ip), vehicle: saline
[7] = dose: 60.0 mg/kg/injection, schedule: Q01DX005 (ip), vehicle: saline with Tween-80
[8] = dose: 120.0 mg/kg/injection, schedule: Q01DX005 (ip), vehicle: saline with Tween-80
[9] = dose: 240.0 mg/kg/injection, schedule: Q01DX005 (ip), vehicle: saline with Tween-80
[10] = dose: 60.0 mg/kg/injection, schedule: Q01DX005 (ip), vehicle: Klucel (hydroxypropylcellulose) (HPC)
[11] = dose: 60.0 mg/kg/injection, schedule: Q01DX005 (ip), vehicle: saline
[12] = dose: 15.0 mg/kg/injection, schedule: Q01DX005 (ip), vehicle: Klucel (hydroxypropylcellulose) (HPC)

Measured: T/C

CC[n+]1c(/C=C/c2ccc(N(C)C)cc2)ccc2ccccc21
inactive: dose: 0.19 mg/kg/injection, schedule: Q01DX009 (ip), vehicle: saline 100 % of control | dose: 0.39 mg/kg/injection, schedule: Q01DX009 (ip), vehicle: saline 86 % of control | dose: 0.78 mg/kg/injection, schedule: Q01DX009 (ip), vehicle: saline 114 % of control | dose: 1.56 mg/kg/injection, schedule: Q01DX009 (ip), vehicle: saline 96 % of control

CC(C)N1C(=O)N(Cl)C2C1N(Cl)C(=O)N2Cl (stereo not given)
inactive: dose: 25.0 mg/kg/injection, schedule: Q01DX005 (ip), vehicle: saline with Tween-80 99 % of control | [1] 108 % of control and 122 % of control | [2] 122 % of control | [3] 113 % of control and 117 % of control

CSc1nc(Cl)cc(N2CC2)n1
inactive: dose: 0.5 mg/kg/injection, schedule: Q04DX003 (ip), vehicle: saline 110 % of control | dose: 1.0 mg/kg/injection, schedule: Q04DX003 (ip), vehicle: saline 100 % of control | dose: 2.0 mg/kg/injection, schedule: Q04DX003 (ip), vehicle: saline 100 % of control

CN1CCN(CCCN2c3ccccc3Sc3cc(N4c5ccccc5Sc5ccc(C(F)(F)F)cc54)c(C(F)(F)F)cc32)CC1
inactive: dose: 100.0 mg/kg/injection, schedule: Q04DX003 (ip), vehicle: Klucel (hydroxypropylcellulose) (HPC) 95 % of control | dose: 200.0 mg/kg/injection, schedule: Q04DX003 (ip), vehicle: Klucel (hydroxypropylcellulose) (HPC) 95 % of control | dose: 400.0 mg/kg/injection, schedule: Q04DX003 (ip), vehicle: Klucel (hydroxypropylcellulose) (HPC) 107 % of control

N#C/C(=N\O)C(N)=O
inactive: dose: 25.0 mg/kg/injection, schedule: Q01DX009 (ip), vehicle: saline 92 % of control | [4] 105 % of control | [5] 105 % of control | [6] 98 % of control

CCOC(=O)C(/N=N\c1nn[nH]n1)/N=N/c1ncn[nH]1 (stereo not given)
inactive: dose: 100.0 mg/kg/injection, schedule: Q01DX001 (ip), vehicle: suspension in saline 102 % of control | dose: 200.0 mg/kg/injection, schedule: Q01DX001 (ip), vehicle: suspension in saline 102 % of control | dose: 400.0 mg/kg/injection, schedule: Q01DX001 (ip), vehicle: suspension in saline 107 % of control

CCc1n[nH]c(CC)c1CCCCCCOc1ccc(OC)cc1Cl
inactive: [1] 102 % of control | [7] 100 % of control | [2] 105 % of control | [8] 93 % of control | [3] 108 % of control | [9] 106 % of control

CNc1c([N+](=O)[O-])cc2[nH]cnc2c1[N+](=O)[O-]
inactive: dose: 25.0 mg/kg/injection, schedule: Q04DX003 (ip), vehicle: saline with Tween-80 97 % of control | dose: 50.0 mg/kg/injection, schedule: Q04DX003 (ip), vehicle: saline with Tween-80 95 % of control

Fc1ccc2nc3ccccc3c(SCCCCCCSc3c4ccccc4nc4ccc(F)cc34)c2c1
inactive: [10] 96 % of control | dose: 120.0 mg/kg/injection, schedule: Q01DX005 (ip), vehicle: Klucel (hydroxypropylcellulose) (HPC) 90 % of control

CC1(C)OC2OC3C(O)C(=O)OC3C2O1 (stereo not given)
inactive: [11] 107 % of control | dose: 120.0 mg/kg/injection, schedule: Q01DX005 (ip), vehicle: saline 97 % of control | dose: 240.0 mg/kg/injection, schedule: Q01DX005 (ip), vehicle: saline 99 % of control

CC(CO)NC(=O)C1C=C2c3cccc4[nH]cc(c34)CC2N(C)C1 (stereo not given)
inactive: dose: 9.0 mg/kg/injection, schedule: Q01DX009 (ip), vehicle: saline 97 % of control | dose: 18.0 mg/kg/injection, schedule: Q01DX009 (ip), vehicle: saline 91 % of control | dose: 44.5 mg/kg/injection, schedule: Q01DX009 (ip), vehicle: saline 97 % of control | dose: 89.0 mg/kg/injection, schedule: Q01DX009 (ip), vehicle: saline 97 % of control | dose: 178.0 mg/kg/injection, schedule: Q01DX009 (ip), vehicle: saline 106 % of control

COc1cc2c(c3c1c(=O)c1ccccc1n3C)C=C([N+](=O)[O-])C(C)(C)O2
inactive: dose: 3.0 mg/kg/injection, schedule: Q01DX005 (ip), vehicle: saline + Tween-80 + alcohol 116 % of control | dose: 6.0 mg/kg/injection, schedule: Q01DX005 (ip), vehicle: saline + Tween-80 + alcohol 116 % of control | dose: 12.0 mg/kg/injection, schedule: Q01DX005 (ip), vehicle: saline + Tween-80 + alcohol 108 % of control

CC(=O)c1cc(Cl)ccc1OCC(O)CNc1ccccc1C(=O)c1ccccc1 (stereo not given)
inactive: [7] 103 % of control | [8] 87 % of control | [9] 87 % of control

Brc1ccc(-c2nc3sc(-c4ccc5c(c4)OCO5)nn3c2Br)cc1
inactive: [7] 100 % of control | [8] 100 % of control | [9] 93 % of control

O=C1/C(=C/c2cccnc2)Cc2ccccc21
inactive: dose: 12.5 mg/kg/injection, schedule: Q01DX009 (ip), vehicle: other 103 % of control | dose: 25.0 mg/kg/injection, schedule: Q01DX009 (ip), vehicle: other 103 % of control | dose: 50.0 mg/kg/injection, schedule: Q01DX009 (ip), vehicle: other 99 % of control | dose: 100.0 mg/kg/injection, schedule: Q01DX009 (ip), vehicle: other 99 % of control | dose: 200.0 mg/kg/injection, schedule: Q01DX009 (ip), vehicle: other 94 % of control

CC(=O)N(c1nc2ccccc2n1C)C(C)C
inactive: dose: 25.0 mg/kg/injection, schedule: Q01DX009 (ip), vehicle: saline with Tween-80 110 % of control | dose: 50.0 mg/kg/injection, schedule: Q01DX009 (ip), vehicle: saline with Tween-80 98 % of control | dose: 100.0 mg/kg/injection, schedule: Q01DX009 (ip), vehicle: saline with Tween-80 115 % of control

NC(=O)CNCc1ccccc1
inactive: [1] 94 % of control | [2] 99 % of control | [3] 94 % of control

CCN(CC)Cc1cc(Nc2c3ccccc3nc3cc(Cl)ccc23)ccc1O
inactive: dose: 33.0 mg/kg/injection, schedule: Q01DX009 (ip), vehicle: saline 100 % of control | [4] 109 % of control | dose: 75.0 mg/kg/injection, schedule: Q01DX009 (ip), vehicle: saline 122 % of control

CC(C)=NNC1=NC(C)(C)P(=O)(NNc2ncccn2)S1 (stereo not given)
inactive: [12] 107 % of control | dose: 30.0 mg/kg/injection, schedule: Q01DX005 (ip), vehicle: Klucel (hydroxypropylcellulose) (HPC) 105 % of control | [10] 93 % of control | [11] 98 % of control

CSc1nc(NC2OC(CO)C(O)C(O)C2O)c(Cl)c(=O)[nH]1 (stereo not given)
inactive: [7] 97 % of control | [8] 97 % of control | [9] 98 % of control

N#CCCP(=O)(O)CO
inactive: [4] 106 % of control | [5] 100 % of control | [6] 92 % of control

COc1ccc(CC(N)c2ccccc2)cc1 (stereo not given)
inactive: [4] 96 % of control | [5] 98 % of control

CC1=CC(=O)c2c(O)cccc2C1=O
inactive: dose: 2.0 mg/kg/injection, schedule: Q01DX009 (ip), vehicle: Klucel (hydroxypropylcellulose) (HPC) 108 % of control | dose: 2.0 mg/kg/injection, schedule: Q01DX009 (ip), vehicle: saline with Tween-80 110 % of control | dose: 4.0 mg/kg/injection, schedule: Q01DX009 (ip), vehicle: Klucel (hydroxypropylcellulose) (HPC) 113 % of control and 116 % of control | dose: 4.0 mg/kg/injection, schedule: Q01DX009 (ip), vehicle: saline with Tween-80 114 % of control | dose: 8.0 mg/kg/injection, schedule: Q01DX009 (ip), vehicle: Klucel (hydroxypropylcellulose) (HPC) 122 % of control

CON(C)c1nc(N(C)C)nc(N(C)C)n1
inactive: [4] 91 % of control | [5] 98 % of control | [6] 96 % of control

Cn1c(=O)c2c(-c3ccc(Cl)cc3)onc2n(C)c1=O
inactive: dose: 50.0 mg/kg/injection, schedule: Q01DX009 (ip), vehicle: Klucel (hydroxypropylcellulose) (HPC) 96 % of control | dose: 100.0 mg/kg/injection, schedule: Q01DX009 (ip), vehicle: Klucel (hydroxypropylcellulose) (HPC) 100 % of control

CC(=O)c1cc[c]([Sn]([CH3])([Cl])[c]2ccccc2)cc1 (stereo not given)
inactive: dose: 7.5 mg/kg/injection, schedule: Q01DX005 (ip), vehicle: Klucel (hydroxypropylcellulose) (HPC) 100 % of control | [12] 107 % of control | [10] 108 % of control

S=C(N\N=C/C(/C=C/c1ccccc1)=N\NC(=S)Nc1ccc(Br)cc1)Nc1ccc(Br)cc1
inactive: dose: 100.0 mg/kg/injection, schedule: Q04DX002 (ip), vehicle: Klucel (hydroxypropylcellulose) (HPC) 106 % of control | dose: 200.0 mg/kg/injection, schedule: Q04DX002 (ip), vehicle: Klucel (hydroxypropylcellulose) (HPC) 97 % of control | dose: 400.0 mg/kg/injection, schedule: Q04DX002 (ip), vehicle: Klucel (hydroxypropylcellulose) (HPC) 95 % of control
